Measured values: US6914045B2, “Glycopeptide antibiotics” (Wyeth Holdings Corporation, priority 2001, dated 2005)

Key:
Assay in all cases: in vitro antibacterial evaluation, MIC by broth dilution
Assay type in all cases: cell-based
Escherichia coli = conditions: 18 hours at 35° C., strain ATCC 25922
Procedure, shortened: (§1)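 Broth dilution per NCCLS M7-A2 in Mueller-Hinton II medium, inoculum 5×10^5 CFU/mL, antibiotic range 64-0.06 μg/mL. MIC taken as lowest concentration inhibiting growth; Gram-positive panel includes recent clinical isolates resistant to methicillin, penicillin and/or vancomycin.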

Staphylococcus sp. = conditions: broth dilution, 18 hours at 35° C.
Procedure, shortened: as §1

Enterococcus sp. = conditions: broth dilution, 18 hours at 35° C.
Procedure, shortened: as §1

Streptococcus sp. = conditions: broth dilution, 18 hours at 35° C.
Procedure, shortened: as §1

CCCCCC1OCC2OC(OC3C(CO)OC(Oc4ccc(CC5NC(=O)C(C(C)c6ccccc6)NC(=O)CNC(=O)C(CO)NC(=O)C(C(O)C6CNC(=N)N6C6OC(CO)C(O)C(O)C6O)NC(=O)C(C(O)C6CNC(=N)N6)NC5=O)cc4)C(O)C3O)C(O)C(O)C2O1 (stereo not drawn) [Example 108, Cyclo[glycyl-β-methylphenylalanyl-O-[4-O-(4,6-O-hexylidenehexopyranosyl)hexopyranosyl]-tyrosyl-3-(2-iminoimidazolidin-4-yl)seryl-3-(3-hexopyranosyl-2-iminoimidazolidin-4-yl)-serylseryl]]
32 µg/mL: MIC Escherichia coli (ATCC 25922) (Escherichia coli)
<0.5 µg/mL: MIC Coagulase Negative Staphylococcus (GC 4548) (Staphylococcus sp.) | MIC Coagulase Negative Staphylococcus (GC 4548) (Staphylococcus sp.; strain GC 4548) | MIC Streptococcus agalactiae (GC 4564) (Streptococcus sp.; Streptococcus agalactiae (GC 4564)) | MIC Streptococcus pneumoniae (GC 4565) (Streptococcus sp.; Streptococcus pneumoniae (GC 4565)) | MIC Streptococcus pyogenes (ID-3187) (Streptococcus sp.; Streptococcus pyogenes (ID-3187)) | MIC Streptococcus agalactiae (GC 4564) (Streptococcus sp.; strain GC 4564) | MIC Streptococcus pneumoniae (GC 4565) (Streptococcus sp.; strain GC 4565) | MIC Streptococcus pyogenes (ID-3187) (Streptococcus sp.; strain ID-3187)
2 µg/mL: MIC Enterococcus avium (GC 4558) (Enterococcus sp.; Enterococcus avium (GC 4558)) | MIC Enterococcus faecalis (ATCC 29212) (Enterococcus sp.; Enterococcus faecalis (ATCC 29212)) | MIC Enterococcus faecalis (GC 2242) (Enterococcus sp.; Enterococcus faecalis (GC 2242)) | MIC Enterococcus faecalis (GC 4552) (Enterococcus sp.; Enterococcus faecalis (GC 4552)) | MIC Enterococcus faecalis (GC 4553) (Enterococcus sp.; Enterococcus faecalis (GC 4553)) | MIC Enterococcus faecalis (GC 4554) (Enterococcus sp.; Enterococcus faecalis (GC 4554)) | MIC Enterococcus faecium (GC 2243) (Enterococcus sp.; Enterococcus faecium (GC 2243)) | MIC Enterococcus faecium (GC 4556) (Enterococcus sp.; Enterococcus faecium (GC 4556)) | MIC Enterococcus faecalis (ATCC 29212) (Enterococcus sp.; strain ATCC 29212) | MIC Enterococcus faecalis (GC 2242) (Enterococcus sp.; strain GC 2242) | MIC Enterococcus faecium (GC 2243) (Enterococcus sp.; strain GC 2243) | MIC Enterococcus faecalis (GC 4552) (Enterococcus sp.; strain GC 4552) | MIC Enterococcus faecalis (GC 4553) (Enterococcus sp.; strain GC 4553) | MIC Enterococcus faecalis (GC 4554) (Enterococcus sp.; strain GC 4554) | MIC Enterococcus faecium (GC 4556) (Enterococcus sp.; strain GC 4556) | MIC Enterococcus avium (GC 4558) (Enterococcus sp.; strain GC 4558)
1 µg/mL: MIC Coagulase Negative Staphylococcus (GC 4547) (Staphylococcus sp.) | MIC Coagulase Negative Staphylococcus (GC 4549) (Staphylococcus sp.) | MIC Coagulase Negative Staphylococcus (GC 4551) (Staphylococcus sp.) | MIC Coagulase Negative Staphylococcus (ID-3941) (Staphylococcus sp.) | MIC Staphylococcus aureus (ATCC 29213) (Staphylococcus sp.) | MIC Staphylococcus aureus (GC 1131) (Staphylococcus sp.) | MIC Staphylococcus aureus (GC 4541) (Staphylococcus sp.) | MIC Staphylococcus aureus (GC 4542) (Staphylococcus sp.) | MIC Staphylococcus aureus (GC 4544) (Staphylococcus sp.) | MIC Staphylococcus aureus (GC 4545) (Staphylococcus sp.) | MIC Staphylococcus aureus-SMITH (GC 4543) (Staphylococcus sp.) | MIC Staphylococcus haemolyticus (GC 4546) (Staphylococcus sp.) | MIC Staphylococcus aureus (GC 1131) (Staphylococcus sp.; inoculum 5×10^5 CFU/mL, strain GC 1131) | MIC Staphylococcus aureus (ATCC 29213) (Staphylococcus sp.; strain ATCC 29213) | MIC Staphylococcus aureus (GC 4541) (Staphylococcus sp.; strain GC 4541) | MIC Staphylococcus aureus (GC 4542) (Staphylococcus sp.; strain GC 4542) | MIC Staphylococcus aureus (GC 4544) (Staphylococcus sp.; strain GC 4544) | MIC Staphylococcus aureus (GC 4545) (Staphylococcus sp.; strain GC 4545) | MIC Staphylococcus haemolyticus (GC 4546) (Staphylococcus sp.; strain GC 4546) | MIC Coagulase Negative Staphylococcus (GC 4547) (Staphylococcus sp.; strain GC 4547) | MIC Coagulase Negative Staphylococcus (GC 4549) (Staphylococcus sp.; strain GC 4549) | MIC Coagulase Negative Staphylococcus (GC 4551) (Staphylococcus sp.; strain GC 4551) | MIC Coagulase Negative Staphylococcus (ID-3941) (Staphylococcus sp.; strain ID-3941) | MIC Staphylococcus aureus-SMITH (GC 4543) (Staphylococcus sp.; strain SMITH GC 4543) | MIC Enterococcus faecium (GC 4557) (Enterococcus sp.; Enterococcus faecium (GC 4557)) | MIC Enterococcus faecium (GC 4557) (Enterococcus sp.; strain GC 4557)
